For 20 compounds, POD vs vehicle results are on record in the supplement of paper PMC11368000.

Where only a bound is given, the exact number is not on record here.

For one assay, the system named is 20084 (donor line of iPSC-derived cardiomyocytes). Description: POD (EC95) for loss of peak frequency (asystole) vs vehicle; higher = less potent (higher point of departure). To be noted: exposure time: 90 min. The protocol: (§1)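 Human iPSC-derived cardiomyocytes from 16 donors were exposed for 90 min at 37 °C to each PFAS at 0.1, 1, 10 and 100 µM in 0.5% DMSO, 384-well plates. Kinetic Ca2+ flux (FLIPR) and Hoechst nuclei counts were normalised to vehicle wells and fitted with a hierarchical Bayesian Hill model to give donor-specific PODs: EC05 for beat-rate increase or decrease and for decay-to-rise ratio increase (QT proxy), EC95 for peak-frequency loss (asystole), EC10 for total cell number loss. 0.03 µM is the lower bound.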
On to `CN(CCO)S(=O)(=O)C(F)(F)C(F)(F)C(F)(F)C(F)(F)C(F)(F)C(F)(F)C(F)(F)C(F)(F)F` [N-Methyl-N-(2-hydroxyethyl)perfluorooctanesulfonamide], for which the POD vs vehicle was over 100 µM.

A further assay has as its system 1118 (donor line of iPSC-derived cardiomyocytes). The assay is described as above. As to conditions: exposure time: 90 min. Here is the method:
as §1
Turning to `NC(=O)C(F)(F)C(F)(F)C(F)(F)C(F)F`, the POD vs vehicle was over 100 µM.

As for `OCC(O)CC(F)(F)C(F)(F)C(F)(F)C(F)(F)C(F)(F)C(F)(F)C(F)(F)C(F)(F)F` (stereo not given) [1-(Perfluorofluorooctyl)propane-2,3-diol], the POD vs vehicle was 1.19 µM.

Compound `CC(O)C(F)(F)C(F)(F)F` (stereo not given) [1-Pentafluoroethylethanol] returned a POD vs vehicle of over 100 µM.

For the compound `OCC(F)(F)C(F)(F)C(F)(F)C(F)F` [1H,1H,5H-Perfluoropentanol], the POD vs vehicle turned out to be 86.3 µM.

`O=S(=O)(OCC(F)(F)F)C(F)(F)C(F)(F)C(F)(F)C(F)(F)F` [2,2,2-Trifluoroethyl_perfluorobutanesulfonate] came in with a POD vs vehicle of over 100 µM.

On to `O=C(O)C(F)(F)C(F)(F)C(F)F` [2,2,3,3,4,4-Hexafluorobutanoic_acid], for which the POD vs vehicle is over 100 µM.

For the compound `NC(O)(C(F)(F)F)C(F)(F)F` [2-Aminohexafluoropropan-2-ol], the POD vs vehicle is over 100 µM.

`O=C(O)CCC(F)(F)C(F)(F)C(F)(F)C(F)(F)C(F)(F)F` [2H,2H,3H,3H-Perfluorooctanoic_acid] gave a POD vs vehicle of 67.4 µM.

For the compound `O=C(O)C=C(C(F)(F)F)C(F)(F)F` [3,3-Bis(trifluoromethyl)-2-propenoic_acid], the POD vs vehicle was over 100 µM.

Regarding `O=C(O)C=CC(F)(C(F)(F)F)C(F)(F)F` [3-(Perfluoroisopropyl)-2-propenoic_acid], the POD vs vehicle was over 100 µM.

For the compound `O=C(O)CCC(F)(F)C(F)(F)C(F)(F)C(F)(F)C(F)(F)C(F)(F)C(F)(F)F` [3-Perfluoroheptylpropanoic_acid], the POD vs vehicle was 59.8 µM.

`O=C(O)CCC(F)(F)C(F)(F)C(F)(F)F` [3:3 Fluorotelomer carboxylic acid]: the POD vs vehicle is over 100 µM.

In turn, `O=C(CC(=O)C(F)(F)C(F)(F)F)C(F)(F)F` [3H,3H-Perfluoro-2,4-hexanedione] had a POD vs vehicle of 80.5 µM.

The compound `OCCC(F)(F)C(F)(F)C(F)(F)C(F)(F)F` [4:2 Fluorotelomer alcohol] gave a POD vs vehicle of 89.1 µM.

As for `O=S(=O)(O)CCC(F)(F)C(F)(F)C(F)(F)C(F)(F)F` [4:2 Fluorotelomer sulfonic acid], the POD vs vehicle was over 100 µM.

In the case of `OCC(F)(F)C(F)(F)C(F)(F)C(F)(F)C(F)(F)C(F)(F)F` [6:1 Fluorotelomer alcohol], the POD vs vehicle turned out to be 1.75 µM.

Consider `OCCC(F)(F)C(F)(F)C(F)(F)C(F)(F)C(F)(F)C(F)(F)F` [6:2 Fluorotelomer alcohol], for which the POD vs vehicle was over 100 µM.

In turn, `O=S(=O)(O)CCC(F)(F)C(F)(F)C(F)(F)C(F)(F)C(F)(F)C(F)(F)F` [6:2 Fluorotelomer sulfonic acid] gave a POD vs vehicle of over 100 µM.

Compound `OCCC(F)(F)C(F)(F)C(F)(F)C(F)(F)C(F)(F)C(F)(F)C(F)(F)C(F)(F)F` [8:2 Fluorotelomer alcohol] had a POD vs vehicle of over 100 µM.

For a further assay, the system named is 1368 (donor line of iPSC-derived cardiomyocytes). The description is as above. As to conditions: exposure time: 90 min. Here is the method:
as §1
Consider `NC(=O)C(F)(F)C(F)(F)C(F)(F)C(F)F`, for which the POD vs vehicle is over 100 µM.

In turn, `OCC(O)CC(F)(F)C(F)(F)C(F)(F)C(F)(F)C(F)(F)C(F)(F)C(F)(F)C(F)(F)F` (stereo not given) [1-(Perfluorofluorooctyl)propane-2,3-diol] came in with a POD vs vehicle of over 100 µM.

With `CC(O)C(F)(F)C(F)(F)F` (stereo not given) [1-Pentafluoroethylethanol], the POD vs vehicle was over 100 µM.

As for `OCC(F)(F)C(F)(F)C(F)(F)C(F)F` [1H,1H,5H-Perfluoropentanol], the POD vs vehicle was over 100 µM.

With `O=S(=O)(OCC(F)(F)F)C(F)(F)C(F)(F)C(F)(F)C(F)(F)F` [2,2,2-Trifluoroethyl_perfluorobutanesulfonate], the POD vs vehicle was over 100 µM.

`O=C(O)C(F)(F)C(F)(F)C(F)F` [2,2,3,3,4,4-Hexafluorobutanoic_acid] yielded a POD vs vehicle of over 100 µM.

For the compound `NC(O)(C(F)(F)F)C(F)(F)F` [2-Aminohexafluoropropan-2-ol], the POD vs vehicle is over 100 µM.

For the compound `O=C(O)CCC(F)(F)C(F)(F)C(F)(F)C(F)(F)C(F)(F)F` [2H,2H,3H,3H-Perfluorooctanoic_acid], the POD vs vehicle was over 100 µM.

In the case of `O=C(O)C=C(C(F)(F)F)C(F)(F)F` [3,3-Bis(trifluoromethyl)-2-propenoic_acid], the POD vs vehicle was over 100 µM.

On to `O=C(O)C=CC(F)(C(F)(F)F)C(F)(F)F` [3-(Perfluoroisopropyl)-2-propenoic_acid], for which the POD vs vehicle is over 100 µM.

Take `O=C(O)CCC(F)(F)C(F)(F)C(F)(F)C(F)(F)C(F)(F)C(F)(F)C(F)(F)F` [3-Perfluoroheptylpropanoic_acid]: the POD vs vehicle is over 100 µM.

As to `O=C(O)CCC(F)(F)C(F)(F)C(F)(F)F` [3:3 Fluorotelomer carboxylic acid], the POD vs vehicle was over 100 µM.

For `O=C(CC(=O)C(F)(F)C(F)(F)F)C(F)(F)F` [3H,3H-Perfluoro-2,4-hexanedione], the POD vs vehicle is over 100 µM.

Consider `OCCC(F)(F)C(F)(F)C(F)(F)C(F)(F)F` [4:2 Fluorotelomer alcohol], for which the POD vs vehicle was over 100 µM.

In the case of `O=S(=O)(O)CCC(F)(F)C(F)(F)C(F)(F)C(F)(F)F` [4:2 Fluorotelomer sulfonic acid], the POD vs vehicle was over 100 µM.

`OCC(F)(F)C(F)(F)C(F)(F)C(F)(F)C(F)(F)C(F)(F)F` [6:1 Fluorotelomer alcohol] yielded a POD vs vehicle of over 100 µM.

`OCCC(F)(F)C(F)(F)C(F)(F)C(F)(F)C(F)(F)C(F)(F)F` [6:2 Fluorotelomer alcohol] gave a POD vs vehicle of over 100 µM.

`O=S(=O)(O)CCC(F)(F)C(F)(F)C(F)(F)C(F)(F)C(F)(F)C(F)(F)F` [6:2 Fluorotelomer sulfonic acid] returned a POD vs vehicle of over 100 µM.

Compound `OCCC(F)(F)C(F)(F)C(F)(F)C(F)(F)C(F)(F)C(F)(F)C(F)(F)C(F)(F)F` [8:2 Fluorotelomer alcohol] showed a POD vs vehicle of over 100 µM.

Compound `CN(CCO)S(=O)(=O)C(F)(F)C(F)(F)C(F)(F)C(F)(F)C(F)(F)C(F)(F)C(F)(F)C(F)(F)F` [N-Methyl-N-(2-hydroxyethyl)perfluorooctanesulfonamide] yielded a POD vs vehicle of over 100 µM.

The test system of a further assay is 1565 (donor line of iPSC-derived cardiomyocytes). The description is as above. As to conditions: exposure time: 90 min. Here is the method:
as §1
Consider `NC(=O)C(F)(F)C(F)(F)C(F)(F)C(F)F`, for which the POD vs vehicle is over 100 µM.

Regarding `OCC(O)CC(F)(F)C(F)(F)C(F)(F)C(F)(F)C(F)(F)C(F)(F)C(F)(F)C(F)(F)F` (stereo not given) [1-(Perfluorofluorooctyl)propane-2,3-diol], the POD vs vehicle was over 100 µM.

`CC(O)C(F)(F)C(F)(F)F` (stereo not given) [1-Pentafluoroethylethanol] displayed a POD vs vehicle of over 100 µM.

In turn, `OCC(F)(F)C(F)(F)C(F)(F)C(F)F` [1H,1H,5H-Perfluoropentanol] showed a POD vs vehicle of over 100 µM.

Regarding `O=S(=O)(OCC(F)(F)F)C(F)(F)C(F)(F)C(F)(F)C(F)(F)F` [2,2,2-Trifluoroethyl_perfluorobutanesulfonate], the POD vs vehicle is over 100 µM.

In the case of `O=C(O)C(F)(F)C(F)(F)C(F)F` [2,2,3,3,4,4-Hexafluorobutanoic_acid], the POD vs vehicle was over 100 µM.

Turning to `NC(O)(C(F)(F)F)C(F)(F)F` [2-Aminohexafluoropropan-2-ol], the POD vs vehicle is over 100 µM.

The compound `O=C(O)CCC(F)(F)C(F)(F)C(F)(F)C(F)(F)C(F)(F)F` [2H,2H,3H,3H-Perfluorooctanoic_acid] gave a POD vs vehicle of over 100 µM.

As for `O=C(O)C=C(C(F)(F)F)C(F)(F)F` [3,3-Bis(trifluoromethyl)-2-propenoic_acid], the POD vs vehicle is over 100 µM.

Take `O=C(O)C=CC(F)(C(F)(F)F)C(F)(F)F` [3-(Perfluoroisopropyl)-2-propenoic_acid]: the POD vs vehicle is over 100 µM.
